Assay results as given in patent EP4711366A1, “PYRIMIDO MACROHETEROCYCLIC COMPOUND AS WEE1-YES DUAL-TARGET INHIBITOR AND USE THEREOF” (Mindrank AI Ltd., priority 2023, dated 2024).

What was measured:
[1] = molecular target: YES1 kinase (Homo sapiens, UniProt P07947); assay: YES1 protein kinase inhibitory activity assay (HTRF); format: biochemical; conditions: for IC50: HTRF, YES1 kinase, ATP 10 µM
Description: In this experiment, the capability of the compound MRANK-106 of the present disclosure to inhibit kinase activity was assessed by an HTRF method using a drug screening system based on the YES1 kinase.
Table 3-1. Information about reagents and consumables
The enzymatic activity conditions and HTRF system formulation are shown in Table 3-3; the experimental conditions for the kinase activity assay are shown in Table 3-4. Table 3-3. HTRF system formulation
Table 3-4. The experimental conditions for the kinase activity assay
The test compound MRANK-106 was dissolved in DMSO, and the solution was vortexed and shaken for thorough mixing. The solution was serially diluted 3-fold with DMSO, with the initial concentration being 503 nM.
① A 2× ATP/substrate solution and a 2× kinase solution were formulated using a kinase reaction buffer.
② 50 nL of the compound dilution was transferred to a 384 detection plate using Echo 655. After centrifugation, 2.5 µL of a 2× kinase solution was added to the 384 detection plate. The plate was centrifuged at 1000 rpm for 1 min and incubated at 25 °C for 10 min.
② 2.5 µL of the 2× substrate and ATP solution was added to the 384 detection plate, and the plate was centrifuged at 1000 rpm for 1 min and incubated at 25 °C for 60 min.
④ A 2× XL665 and antibody detection reagent was formulated using a detection buffer.
⑤ 5 µL of a kinase detection reagent was added to the detection plate, and the plate was incubated at 25 °C. The plate was centrifuged at 1000 rpm for 1 min and incubated at 25 °C for 1 h.
⑥ The fluorescence signals at 620 nm (Cryptate) and 665 nm (XL665) were read using a BMG high-throughput drug-screening multi-mode microplate reader.
With the reading of the negative control set as an inhibition rate of 0% and the reading of the positive control set as an inhibition rate of 100%, the inhibition rate of each test solution was calculated using the following formula: [formula] • Datapositive control: the average of the positive control well values • Datanegative control : the average of the negative control well values
The IC50 (half maximal inhibitory concentration) of the compound was obtained using the following nonlinear fitting formulas: Y = Bottom + (Top−Bottom)/(1+10^(∧)((LogIC50−X)*HillSlope)) [formula] • X: the log value of the compound concentration • Y: the inhibition rate (% inh) of the compound
The Z' factor calculation equation: Z′ = 1−3(SDmin+SDmax)/(AVEmax−AVEmin) [formula] where: • Min is the positive control Data value, and Max is the negative control DMSO Data value; • SD stands for standard deviation, and AVE stands for average.

[2] = system: A427 cells; assay: Tumor cell proliferation inhibitory activity assay (CCK-8); format: cell-based, Human; conditions: for IC50: Homo sapiens, A-427, 72 h compound incubation, CCK-8
Description: Human lung cancer A427 cells are cancer cells reported to be sensitive to wee1 inhibitors. In this assay, the anti-cancer effects of the compounds of the present disclosure were verified by assessing the activity of the test substances in inhibiting A427 cell proliferation.
A427 cells were cultured according to the cell culture instructions, and cells in the logarithmic growth phase were collected, counted, resuspended in a complete culture medium, and inoculated into a 96-well plate at a cell concentration of 100 µL/3000 cells/well. The cells were incubated in an incubator at 37 °C with 100% relative humidity and 5% CO2 for 24 h.
The compounds to be tested were dissolved in DMSO and diluted 4-fold with a culture medium from 10 µM to 10 concentration gradients.
The culture medium waste was pipetted off, and 100 µL of the formulated culture medium of the compound to be tested was added to each well. The cells were incubated in an incubator at 37 °C with 100% relative humidity and 5% CO2 for 72 h.
The plate was taken out, the CCK-8 reagent was added at 10 µL/well, and the plate was incubated in an incubator at 37 °C for 2-4 h.
The cell growth inhibition rates of the drugs were calculated using the following formula: Cell growth inhibition rate% = [(Ac−As)/(Ac−Ab)] × 100% [formula] • As: the OA of the samples (cells + CCK-8 + compounds to be tested) • Ac: the OA of the normal growth cell control (cells + CCK-8) • Ab: the OA of the blank control (culture medium + CCK-8)
IC50 curve fitting was performed using the software Graphpad Prism 6 and the calculation formula XY-analysis/Nonlinear regression(curve fit)/Dose response-Inhibition/log(inhibitor)vs. response-Variable slope(four parameters), and the IC50 values were calculated. Table 1. Data analysis and results for some representative compounds

[3] = system: SW620 human colon cancer cells; assay: In vivo efficacy study against SW620 tumors (subcutaneous tumor-bearing model); set-up: species or system BALB/c nude mice; conditions: for Relative tumor inhibition rate (%) Day 21 / Relative tumor volume Day 21: PO, QD×21
Source text: SW620 human colon cancer cells were subcultured and expanded in an L-15 culture medium containing 10% FBS. BALB/c nude mice aged 6-8 weeks were taken and each subcutaneously injected with 1 × 10^6 cells to establish a tumor-bearing model. The tumor volume was monitored, and when the tumor volume reached about 150 mm^3, the animals were randomized into 5 groups according to body weight and tumor volume. The animals were given, by oral gavage, the vehicle or compounds to be tested (ZN-c3 and compound IE) once daily for a total of 21 days. During the period of administration, the tumor volume and the animal body weight were measured twice a week, and the animals' states were observed daily. At the endpoint, the animals were euthanized with carbon dioxide, and the subcutaneous tumors were isolated and weighed.
The data calculation formulae are shown below: The tumor volume (TV) was calculated using the formula 1/2×axb^2, where a and b represent the length and width measurements of the tumor, respectively.
The tumor growth inhibition rate (%TGITV) was calculated using the formula (1 - TVT/TVC) × 100%, where TVc represents the average tumor volume of the negative control group, and TVT represents the average tumor volume of the treatment group.
The relative tumor volume (RTV) was calculated using the formula Vt/V0, where V0 represents the tumor volume at the time of grouping, and Vt represents the tumor volume at each measurement.

Sequence of YES1 kinase (P07947 whole entry): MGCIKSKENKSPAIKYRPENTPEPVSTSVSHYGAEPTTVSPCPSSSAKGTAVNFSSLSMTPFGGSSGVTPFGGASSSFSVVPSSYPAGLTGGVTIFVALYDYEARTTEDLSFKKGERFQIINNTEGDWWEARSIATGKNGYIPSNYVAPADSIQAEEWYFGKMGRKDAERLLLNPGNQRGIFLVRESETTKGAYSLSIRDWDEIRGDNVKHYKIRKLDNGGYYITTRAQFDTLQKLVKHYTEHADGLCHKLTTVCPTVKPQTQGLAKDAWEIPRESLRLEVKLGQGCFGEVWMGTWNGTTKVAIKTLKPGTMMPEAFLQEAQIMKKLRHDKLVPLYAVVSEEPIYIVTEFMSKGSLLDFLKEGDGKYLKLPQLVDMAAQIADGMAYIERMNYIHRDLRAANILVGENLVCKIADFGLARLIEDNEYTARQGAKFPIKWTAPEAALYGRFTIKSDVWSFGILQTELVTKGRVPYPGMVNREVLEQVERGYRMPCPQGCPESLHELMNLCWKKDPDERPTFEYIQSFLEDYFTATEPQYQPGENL

inhibition of the Yes target (in words) ([1]; summary statement on the assay results)	Compound	IC50 [1] [nM]	IC50 [2] [nM]	Relative tumor inhibition rate (%) Day 21 ([3]; 30mg/kg) [%]	Relative tumor volume Day 21 ([3]; 30mg/kg)	Relative tumor inhibition rate (%) Day 21 ([3]; 80mg/kg) [%]	Relative tumor volume Day 21 ([3]; 80mg/kg)	activity in inhibiting cancer cell proliferation compared with reference compound Debio 0123 or ZN-c3 ([2]; comparison in words)	activity in inhibiting tumor growth in the SW620 tumor model compared with ZN-c3 ([3]; comparison in words)
–	C=CCn1c(=O)c2cnc(Nc3ccc(N4CCN(C)CC4)cc3)nc2n1-c1ccc2c(n1)C(O)(CC)CC2 (stereo not drawn) [ZN-c3, reference compound]	> 500	129	28.24	8.57	36.78	7.94	–	–
strongly inhibited	Cc1cc(Nc2ncc3c(=O)n4n(c3n2)-c2cccc(n2)[C@](C)(O)CCC=CC4)ccc1OC1CCN(C)CC1 (stereo in doubt) [Compound IE, (R,Z)-12-hydroxy-12-methyl-2-((3-methyl-4-((1-methylpiperidin-4-yl)oxy)phenyl)amino)-7,10,11,12-tetrahydro-5H-13,17-(azeno)pyrimido[4',5':3,4]pyrazolo[1,2-a] [1,2]diazacyclotridecin-5-one]	3.05	13	38.18	7.31	78.38	2.57	several times to several dozen times higher	higher activity than the reference molecule ZN-c3
